Assay results published in article PMC9877316, “Identification of a novel P2X7 antagonist using structure-based virtual screening” (Frontiers in Pharmacology, 2023).

Legend:
[1] = target: T1, human P2X7 (Homo sapiens, UniProt Q99572); assay: ATP-induced YoPro-1 dye uptake assay, human P2X7; format: cell-based; conditions: 300 µM ATP, YoPro-1 uptake
T1 construct: expressed in transfected cells; host or cells: 1321N1 astrocytoma cells (compounds 1-17); HEK-293 cells stably expressing human P2X7 (gift of E. Adinolfi)
T1 sequence (Q99572 1-595): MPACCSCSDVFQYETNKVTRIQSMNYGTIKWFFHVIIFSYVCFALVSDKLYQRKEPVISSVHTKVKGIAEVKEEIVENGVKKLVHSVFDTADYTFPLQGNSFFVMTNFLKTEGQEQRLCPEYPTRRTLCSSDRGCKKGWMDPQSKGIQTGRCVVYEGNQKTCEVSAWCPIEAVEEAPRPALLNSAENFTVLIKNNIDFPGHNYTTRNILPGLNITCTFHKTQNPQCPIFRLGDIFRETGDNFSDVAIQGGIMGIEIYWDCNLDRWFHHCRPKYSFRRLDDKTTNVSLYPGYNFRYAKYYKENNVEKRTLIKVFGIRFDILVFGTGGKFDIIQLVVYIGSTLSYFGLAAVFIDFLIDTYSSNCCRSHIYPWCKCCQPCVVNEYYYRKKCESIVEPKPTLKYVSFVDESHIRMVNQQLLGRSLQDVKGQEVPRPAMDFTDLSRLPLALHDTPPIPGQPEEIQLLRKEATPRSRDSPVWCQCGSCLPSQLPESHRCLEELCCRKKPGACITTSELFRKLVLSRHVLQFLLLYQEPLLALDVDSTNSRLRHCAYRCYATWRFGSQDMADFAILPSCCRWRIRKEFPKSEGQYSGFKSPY
Description: 1321N1 astrocytoma cells and HEK-293 cells were cultured (at 37°C, 5% CO2) in Dulbecco’s modified Eagle’s medium (DMEM/F-12 with Glutamax) supplemented with 10% foetal bovine serum (FBS) and 200 unit/ml of penicillin and streptomycin antibiotics (Fisher Scientific). For stable cell line generation, cells were transfected using FuGene HD Transfection Reagent (Promega) according to the manufacturer’s protocol with plasmids encoding either human P2X4 with a C-terminal (His)10 tag ([Young et al., 2008]), human P2X7 with a C-terminal EYMPME tag (kindly provided by R.A. North) or rat P2X7 C-terminally tagged with a GFP-(His)8 tag, generated by PCR amplification of the coding sequence for rat P2X7 from a pcDNA-based expression vector ([Young et al., 2007]), adding XhoI and EcoRI sites at the 5′- and 3′- ends respectively, followed by restriction digestion and ligation into a zebrafish P2X4-GFP expression vector based on pEGFP-C1 (kindly provided by Eric Gouaux; [Kawate and Gouaux, 2006]) to replace the zebrafish P2X4 coding region with rP2X7. Transfected clones were grown in DMEM/F-12 with Glutamax medium supplemented with G-418 (Geneticin®, Fisher Scientific), 600 μg/ml and 150 μg/ml during selection and maintenance respectively. […] HEK-293 cells stably expressing human P2X7 ([Adinolfi et al., 2010]) were a kind gift from Elena Adinolfi.
Cells were plated as for the calcium influx assay (Section 2.4). Culture medium was replaced with low divalent cation containing extracellular solution (ECS-LD; 147 mM NaCl, 10 mM HEPES, 13 mM Glucose, .2 mM CaCl2, 2 mM KCl. pH = 7.4 in MilliQ water) and 5 μM Yopro-1. […] The baseline was measured with a BMG Clariostar instrument for 5–10 cycles, followed by addition of ATP (or BzATP) and recording for at least 30 further cycles (approx. 1 min per data point). The collected responses were normalized to the first data-point recorded after ATP addition. The initial gradient of the dye uptake curve was used to calculate the response to ATP.
The antagonist activity of the 17 compounds (applied at 10 µM) was assayed initially on 1321N1 astrocytoma cells stably expressing human P2X4 receptors by measuring the ATP-induced (applied at 1.2 µM) increase in Fluo-4 fluorescence due to calcium influx via P2X4, using 2 µM BX430 as a positive control (Figure 1A). […] The ATP-induced rate of uptake of YoPro-1 dye was measured upon application of at 300 µM ATP, using .1 µM A740003 as a positive control (Figure 1B).
A small library of 16 commercially available compounds was selected according to the presence of the same scaffold as GP-25, (70% similarity, Tanimoto index) and/or presence of at least one functional group we hypothesized could contribute to GP-25 activity (e.g. carboxylic acid, halogen substituent to the aromatic ring, ester, etc.) (Compounds 18–33; Table 1). […] Although the number of compounds tested was limited by their availability via a commercial source, the numerous ‘hits’ allowed for a basic structure-relationship (SAR) analysis.

[2] = tested on: HEK-293; assay: CellTiter-Blue cell viability assay; format: cell-based, human; conditions: 30 µM compound; 24 h incubation; HEK-293 wild-type
Description: To assess hit compound toxicity, CellTiter-Blue Cell Viability Assay (Promega, Southampton, United Kingdom) was used as recommended by the manufacturer on not transfected HEK-293. Cells were seeded in 96-well plates (100 μL at a concentration of 30–35,000 cells/ml) in culture media and a day later media was replaced with 100 µL fresh media containing 30 µM of tested compounds (10 µM of A740003). After 24 h incubation at 37 °C, 5% CO2, 20 µL of CellTiter Blue reagent was added to each well and incubated for 3 h at 37°C. Fluorescence was then measured with a BMG Clariostar using excitation/emission wavelengths of 560/590 nm. Data were normalized to vehicle control-treated cells (.1% DMSO).

SMILES: COC(=O)C1=C(C)NC2=C(C(=O)c3ccccc32)C1c1cc(Br)ccc1OCC(=O)O (stereo not drawn) [Compound 9, (4-bromo-2-(3-(methoxycarbonyl)-2-methyl-5-oxo-4,5-dihydro-1H-indeno(1,2-b)pyridine-4-yl)phenoxy)acetic acid]
- inhibition at 30 µM ([1]; P2X7, approx. % inhibition at 30 μM compound, 1321N1 (1-17) or HEK (18-33) cells, read-out: % Inhibition at hP2X7): ~75%
- IC50 [1]: 8.7 µM
- cell viability [2]: did not significantly reduce cell viability
